According to US10725043B2, “Three-dimensional fibroblast aggregate and in vitro 3D skin dermis model comprising same” (S-BIOMEDICS, priority 2015, dated 2020):

What was measured:
[1] = test system: MMP1; experiment: MMP1 secretion (ELISA) in two-dimensionally cultured, UVB-irradiated fibroblasts treated with MMP inhibitors; format: cell-based, human; conditions: for secreted amount of MMP1 relative to the control group: 2D fibroblasts, UVB 20 mJ/cm^2, 2 days, FIG. 17; for decrease of MMP1 in 2D cells in comparison with the 3D cell cluster: 2D UVB fibroblasts versus 3D cell cluster
Experimental: As a control group for the 3D fibroblast cluster and for the comparison of the inhibitory effect of MMP inhibitors using the two-dimensionally cultured fibroblasts, fibroblasts irradiated with ultraviolet B (UVB) were used. In detail, fibroblasts that were suspended in high-concentration glucose DMEM were seeded onto each well of a tissue culture treated 6-well plate at a concentration of 2.5×10^5 cells/cm^2, and then, cultured in a stationary incubator at a temperature of 37° C. for 1 day. Next, a washing process was performed thereon three times by using PBS, a serum-free MEM medium was added thereto, and the fibroblasts were cultured in a stationary incubator at a temperature of 37° C. for 1 hour. After a washing process was performed thereon three times by using PBS, to induce overexpression of MMP1, UVB (20 mJ/cm^2) was irradiated thereto. Following UV irradiation, the resulting fibroblasts were inoculated with various concentrations of retinoic acid (2, 10, 40 mM), abietic acid (20, 100, 400 mM), and TGF-b1 (1, 5, 20, ng/ml) that were diluted in a fibroblast growth medium (FGM, Lonza Company). The inoculated fibroblasts were then additionally cultured in a stationary incubator at a temperature of 37° C. for 2 days. The culture broth was recovered therefrom, and was subjected to measurement of secretion of MMP1. Through the measurement, the culture broth was quantified by using the ELISA kit (R&D Company), wherein a method of using the kit was proceeded according to the supplier's protocol.

[2] = test system: MMP1; experiment: MMP1 secretion (ELISA) in 3D fibroblast cluster treated with MMP inhibitors; format: cell-based, human; conditions: retinoic acid 10 mM, abietic acid 100 mM, TGF-b1 5 ng/ml, cultured 2 and 4 days, FIG. 16
Experimental: To prepare an in vitro 3D artificial dermis model, fibroblasts were first cultured. In detail, human dermal fibroblasts were cultured in high glucose Dulbecco's modified Eagle's medium (DMEM, Welgene, Daegu, South Korea) by using a tissue culture flask under conditions of 37° C., 5% CO2, and 95% O2 atmosphere. Human dermal fibroblasts of 5 passages were used for all experiments.
The fibroblasts were seeded onto the culture container, thereby preparing a 3D fibroblast cluster. In detail, fibroblasts were seeded onto the 96-well NTCP containing fibroblast growth medium (FGM, Lonza) at a concentration of 1.25×10^5 cells/cm^2 per well, and cultured at a temperature of 37° C. The fibroblasts were cultured in a 2D manner on a surface of the culture container, and separated from the surface. Such separated or delocalized 2D fibroblast cluster was then continuously cultured while floating in the culture container, and within 24 hours, a 3D fibroblast cluster was formed spontaneously. The formed 3D fibroblast cluster was collected on the 1st day (Day 1), 3rd day (Day 3), and 5th day (Day 5) of the culture. […] Hereinafter, the 3D fibroblast cluster was represented by ‘3DCM’.
In detail, the 3D fibroblast cluster of the culture at Day 1 prepared according to Example 2(1) was inoculated with retinoic acid (10 mM), abietic acid (100 mM), transforming growth factor-b1 (TGF-b1) (5 ng/ml) that were diluted in a […] (FGM, Lonza Company). The inoculated 3D fibroblast cluster was then cultured in a stationary incubator at a temperature of 37° C. for 2 and 4 days, separately. The culture broth was recovered therefrom, and was subjected to measurement of secretion of MMP1. Through the measurement, the culture broth was quantified by using the ELISA kit (R&D Company), wherein a method of using the kit was proceeded according to the supplier's protocol.

[3] = retinoic acid 2, 10, TGF-b1 1, 5, 20 ng/ml

Row | Compound | secreted amount of MMP1 relative to the control group ([1]; abietic acid 20 mM) | secreted amount of MMP1 relative to the control group ([1]; abietic acid at least 100 mM) | secretion levels of MMP1 relative to the control group [2] | decrease of MMP1 in 2D cells in comparison with the 3D cell cluster [1] | secreted amount of MMP1 relative to the control group [1, 3]
1 | CC(C)C1=CC2=CC[C@@H]3[C@](C)(CCC[C@@]3(C)C(=O)O)[C@H]2CC1 [abietic acid] | approximately reduced to half | about 2% | ~81% | – | –
2 | CC1=C(/C=C/C(C)=C/C=C/C(C)=C/C(=O)O)C(C)(C)CCC1 [retinoic acid] | – | – | about 80% | about 2.7 times | about 30%
3 | transforming growth factor-b1 [TGF-b1] | – | – | about 60% | 1.7 to 2.4 times | 25-35%
